Test results published in PubChem BioAssay AID248 (DTP/NCI, 2004).
Where “and” joins values, the source holds several entries; their conditions need not be identical. Equal entries are not always repeated. Toxic doses and inconclusive results are not listed. No stated cut-off is given here; in the data, active means T/C of 150% or more; inactive means T/C below 125%.

Test system: L1210 leukemia ip in BDF1 mice, survival T/C
Assay: NCI In Vivo Anticancer Drug Screen. Data for tumor model L1210 Leukemia (intraperitoneal) in B6D2F1 (BDF1) mice
Details: endpoint: mean survival time, higher = longer survival
In short: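 Tumor cells were implanted, animals were treated, and survival was followed. The result divides the treated measurement by the vehicle-control measurement.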

[1] = dose: 100.0 mg/kg/injection, schedule: Q01DX009 (ip), vehicle: saline with Tween-80
[2] = dose: 200.0 mg/kg/injection, schedule: Q01DX009 (ip), vehicle: saline with Tween-80
[3] = dose: 100.0 mg/kg/injection, schedule: Q01DX001 (ip), vehicle: saline
[4] = dose: 100.0 mg/kg/injection, schedule: Q04DX003 (ip), vehicle: saline
[5] = dose: 200.0 mg/kg/injection, schedule: Q04DX003 (ip), vehicle: saline
[6] = dose: 400.0 mg/kg/injection, schedule: Q04DX003 (ip), vehicle: saline
[7] = dose: 25.0 mg/kg/injection, schedule: Q01DX009 (ip), vehicle: saline
[8] = dose: 400.0 mg/kg/injection, schedule: Q01DX009 (ip), vehicle: saline with Tween-80
[9] = dose: 12.5 mg/kg/injection, schedule: Q04DX002 (ip), vehicle: Klucel (hydroxypropylcellulose) (HPC)
[10] = dose: 25.0 mg/kg/injection, schedule: Q04DX002 (ip), vehicle: Klucel (hydroxypropylcellulose) (HPC)
[11] = dose: 50.0 mg/kg/injection, schedule: Q04DX002 (ip), vehicle: Klucel (hydroxypropylcellulose) (HPC)
[12] = dose: 100.0 mg/kg/injection, schedule: Q04DX002 (ip), vehicle: Klucel (hydroxypropylcellulose) (HPC)

Measured: T/C

COC(=O)C(C)C(O)c1ccc(C)cc1 (stereo unspecified)
inactive: dose: 50.0 mg/kg/injection, schedule: Q01DX009 (ip), vehicle: saline with Tween-80 93 % of control | [1] 93 % of control | [2] 93 % of control

COCCOCC1CO1 (stereo unspecified)
inactive: dose: 100.0 mg/kg/injection, schedule: Q01DX009 (ip), vehicle: saline 100 % of control | dose: 200.0 mg/kg/injection, schedule: Q01DX009 (ip), vehicle: saline 105 % of control | dose: 400.0 mg/kg/injection, schedule: Q01DX009 (ip), vehicle: saline 100 % of control

C#CC(=O)CCCCCCl
inactive: dose: 6.25 mg/kg/injection, schedule: Q01DX009 (sc), vehicle: olive oil, sesame oil, peanut oil 100 % of control | dose: 12.5 mg/kg/injection, schedule: Q01DX009 (sc), vehicle: olive oil, sesame oil, peanut oil 94 % of control | dose: 12.5 mg/kg/injection, schedule: Q04DX002 (sc), vehicle: olive oil, sesame oil, peanut oil 103 % of control | dose: 25.0 mg/kg/injection, schedule: Q01DX009 (sc), vehicle: olive oil, sesame oil, peanut oil 97 % of control | dose: 25.0 mg/kg/injection, schedule: Q04DX002 (sc), vehicle: olive oil, sesame oil, peanut oil 95 % of control

O=S(=O)(c1ccc(OCC(O)COc2ccc(S(=O)(=O)c3ccc(OCC4CO4)cc3)cc2)cc1)c1ccc(OCC2CO2)cc1 (stereo unspecified)
inactive: [3] 106 % of control | dose: 200.0 mg/kg/injection, schedule: Q01DX001 (ip), vehicle: saline 109 % of control | dose: 400.0 mg/kg/injection, schedule: Q01DX001 (ip), vehicle: saline 104 % of control

O=C(OCCBr)c1ccccc1[N+](=O)[O-]
inactive: [4] 105 % of control | [5] 97 % of control | [6] 100 % of control

COc1ccc(NC(=S)Nc2ccc(OC)cc2)cc1
inactive: dose: 100.0 mg/kg/injection, schedule: Q01DX009 (ip), vehicle: Klucel (hydroxypropylcellulose) (HPC) 101 % of control | dose: 100.0 mg/kg/injection, schedule: Q04DX003 (ip), vehicle: Klucel (hydroxypropylcellulose) (HPC) 103 % of control | dose: 200.0 mg/kg/injection, schedule: Q01DX009 (ip), vehicle: Klucel (hydroxypropylcellulose) (HPC) 105 % of control | dose: 200.0 mg/kg/injection, schedule: Q04DX003 (ip), vehicle: Klucel (hydroxypropylcellulose) (HPC) 103 % of control | dose: 400.0 mg/kg/injection, schedule: Q01DX009 (ip), vehicle: Klucel (hydroxypropylcellulose) (HPC) 92 % of control | dose: 400.0 mg/kg/injection, schedule: Q04DX003 (ip), vehicle: Klucel (hydroxypropylcellulose) (HPC) 94 % of control

OC(c1ccccc1)c1ccncc1 (stereo unspecified)
inactive: dose: 100.0 mg/kg/injection, schedule: Q01DX001 (ip), vehicle: saline with Tween-80 103 % of control | dose: 200.0 mg/kg/injection, schedule: Q01DX001 (ip), vehicle: saline with Tween-80 97 % of control | dose: 400.0 mg/kg/injection, schedule: Q01DX001 (ip), vehicle: saline with Tween-80 103 % of control

Cc1cccc[n+]1CCC(N)=O
inactive: dose: 6.25 mg/kg/injection, schedule: Q01DX009 (ip), vehicle: saline 97 % of control | dose: 12.5 mg/kg/injection, schedule: Q01DX009 (ip), vehicle: saline 97 % of control | [7] 108 % of control

Cc1cc2cc3cccc[n+]3cc2c2ccccc12
inactive: dose: 2.0 mg/kg/injection, schedule: Q01DX Z (ip), vehicle: carboxymethylcellulose (CMC) 101 % of control | dose: 4.0 mg/kg/injection, schedule: Q01DX Z (ip), vehicle: carboxymethylcellulose (CMC) 110 % of control | dose: 8.0 mg/kg/injection, schedule: Q01DX Z (ip), vehicle: carboxymethylcellulose (CMC) 113 % of control | dose: 16.0 mg/kg/injection, schedule: Q01DX Z (ip), vehicle: carboxymethylcellulose (CMC) 113 % of control

CN(C)CCCOC(=O)C1C2CC3OC(=O)C1C3C2 (stereo unspecified)
inactive: [4] 93 % of control | [5] 96 % of control | [6] 101 % of control

C#CC[N+](CC)(CC)CC
inactive: dose: 25.0 mg/kg/injection, schedule: Q01DX001 (ip), vehicle: saline 100 % of control | [7] 106 % of control and 89 % of control | dose: 25.0 mg/kg/injection, schedule: Q04DX002 (ip), vehicle: saline 95 % of control and 97 % of control | dose: 25.0 mg/kg/injection, schedule: Q04DX003 (ip), vehicle: saline 99 % of control | dose: 50.0 mg/kg/injection, schedule: Q01DX001 (ip), vehicle: saline 100 % of control | dose: 50.0 mg/kg/injection, schedule: Q01DX009 (ip), vehicle: saline 98 % of control and 106 % of control | dose: 50.0 mg/kg/injection, schedule: Q04DX002 (ip), vehicle: saline 107 % of control and 122 % of control | dose: 50.0 mg/kg/injection, schedule: Q04DX003 (ip), vehicle: saline 102 % of control | [3] 105 % of control and 110 % of control | [4] 103 % of control

OC(CC1(O)C(F)(F)C(F)(F)C1(F)F)c1ccccc1 (stereo unspecified)
inactive: [1] 97 % of control | [8] 100 % of control

CCCCCCCCCCCCCCCC(=O)N(c1ccc(N)cc1)C(C)CCCN(CC)CC (stereo unspecified)
inactive: [1] 100 % of control | dose: 100.0 mg/kg/injection, schedule: Q04DX003 (ip), vehicle: saline with Tween-80 98 % of control | [2] 100 % of control | dose: 200.0 mg/kg/injection, schedule: Q04DX003 (ip), vehicle: saline with Tween-80 97 % of control | [8] 100 % of control | dose: 400.0 mg/kg/injection, schedule: Q04DX003 (ip), vehicle: saline with Tween-80 90 % of control

CCSCC(C)O (stereo unspecified)
inactive: dose: 100.0 mg/kg/injection, schedule: Q04DX002 (ip), vehicle: saline with Tween-80 100 % of control | dose: 200.0 mg/kg/injection, schedule: Q04DX002 (ip), vehicle: saline with Tween-80 100 % of control | dose: 400.0 mg/kg/injection, schedule: Q04DX002 (ip), vehicle: saline with Tween-80 94 % of control

CC(=O)Nc1c(C(N)=O)ncn1C1OC(COC(C)=O)C(OC(C)=O)C1OC(C)=O (stereo unspecified)
inactive: dose: 100.0 mg/kg/injection, schedule: Q01DX005 (ip), vehicle: saline 96 % of control | dose: 200.0 mg/kg/injection, schedule: Q01DX005 (ip), vehicle: saline 100 % of control

CC(=O)OC1CCC2(C)C(=CCC3C2CCC2(C)C3CC3C2C(c2ccccc2)=NN3c2ccccc2)C1 (stereo unspecified)
inactive: dose: 6.0 mg/kg/injection, schedule: Q04DX002 (ip), vehicle: Klucel (hydroxypropylcellulose) (HPC) 93 % of control | [9] 104 % of control | [10] 96 % of control | [11] 96 % of control

O=C1c2ccccc2C(=O)N1CNc1ccccc1/C(=N/O)c1ccccc1
inactive: dose: 87.5 mg/kg/injection, schedule: Q01DX009 (ip), vehicle: Klucel (hydroxypropylcellulose) (HPC) 95 % of control | dose: 175.0 mg/kg/injection, schedule: Q01DX009 (ip), vehicle: Klucel (hydroxypropylcellulose) (HPC) 93 % of control | dose: 350.0 mg/kg/injection, schedule: Q01DX009 (ip), vehicle: Klucel (hydroxypropylcellulose) (HPC) 93 % of control

Nc1ccc(N=Nc2ccccc2)cc1
inactive: [11] 105 % of control | [12] 105 % of control | dose: 200.0 mg/kg/injection, schedule: Q04DX002 (ip), vehicle: Klucel (hydroxypropylcellulose) (HPC) 97 % of control and 115 % of control | dose: 400.0 mg/kg/injection, schedule: Q04DX002 (ip), vehicle: Klucel (hydroxypropylcellulose) (HPC) 112 % of control

O=C(O)/C=C/S(=O)(=O)c1ccc(Cl)cc1
inactive: [9] 101 % of control | dose: 25.0 mg/kg/injection, schedule: Q01DX009 (ip), vehicle: Klucel (hydroxypropylcellulose) (HPC) 97 % of control | [10] 97 % of control | dose: 50.0 mg/kg/injection, schedule: Q01DX009 (ip), vehicle: Klucel (hydroxypropylcellulose) (HPC) 97 % of control | [11] 108 % of control | [12] 95 % of control
